Test results as given in US11505548B2, “Heterocyclic compounds and their use for treatment of helminthic infections and diseases” (Celgene Corporation, priority 2019, dated 2022).
Like-named read-outs stand apart in the source and are kept apart here.

Test system: Onchocerca gutturosa Adult Male Worms
Experiment: Onchocerciasis in vitro screening model, worm motility score
Format: cell-based
Conditions: read-out: O. gutturosa activity level (IC50 or MED)
[1] = Onchocerca gutturosa, Table 1 O. gutturosa, levels A/B/C, motility or MTT readout not specified
[2] = in vitro, Onchocerca gutturosa adult male worms, class A/B/C

Structure (SMILES)	IC50 [1]	IC50 [2]
COc1cnc(Nc2nc(-c3cc(C(=O)N(C)C)c(OC(C)C)cn3)ns2)c(C(F)(F)F)c1 [Compound 264, 5-isopropoxy-2-(5-(5-methoxy-3-(trifluoro-methyl)pyridin-2-ylamino)-1,2,4-thiadiazol-3-yl)-N,N-dimethyliso-nicotinamide]		500 to 5000 nM
CC(C)Oc1ccc(-c2nsc(Nc3ncccc3C(=O)N(C)C)n2)nc1 [Compound 188, 2-(3-(5-isoprop-oxypyridin-2-yl)-1,2,4-thiadiazol-5-ylamino)-N,N-dimethyl nicotinamide]	200 to 500 nM	
CC(=O)N(C)c1cc(C(F)(F)F)cnc1Nc1nc(-c2cc(C(F)(F)F)c(OC(C)C)cn2)ns1 [Compound 268, N-(2-(3-(5-isopropoxy-4-(trifluoromethyl)pyridin-2-yl)-1,2,4-thiadiazol-5-ylamino)-5-(trifluoromethyl)pyridin-3-yl)-N-methylacetamide]		500 to 5000 nM
CN1CCC(Oc2ccnc(-c3nsc(Nc4ncccc4C(F)(F)F)n3)c2)CC1 [Compound 62, 3-(4-(1-methyl-piperidin-4-yloxy)pyridin-2-yl)-N-(3-(trifluoromethyl)pyridin-2-yl)-1,2,4-thiadiazol-5-amine]	< 200 nM	
c1ccc(-c2ccnc(Nc3nnc(-c4ccccn4)[nH]3)c2)cc1 [Compound 241, 4-phenyl-N-(5-(pyridin-2-yl)-4H-1,2,4-triazol-3-yl) pyridin-2-amine]		< 200 nM
CC(=O)N(C)c1cccnc1Nc1nc(-c2cc(C#N)c(OC(C)C)cn2)ns1 [Compound 226, N-(2-(3-(4-cyano-5-isopropoxy-pyridin-2-yl)-1,2,4-thiadiazol-5-ylamino)pyridin-3-yl)-N-methyl-acetamide]		500 to 5000 nM
CN1CCC(Oc2ccc(-c3nsc(Nc4ncccc4C(F)(F)F)n3)nc2)CC1 [Compound 55, 3-(5-(1-methyl-piperidin-4-yloxy)pyridin-2-yl)-N-(3-(trifluoromethyl)pyridin-2-yl)-1,2,4-thiadiazol-5-amine]	< 200 nM	
COc1cnc(Nc2nc(-c3cc(C(N)=O)c(OC(C)C)cn3)ns2)c(C(F)(F)F)c1 [Compound 253, 5-isopropoxy-2-(5-(5-methoxy-3-(trifluoro-methyl)pyridin-2-ylamino)-1,2,4-thiadiazol-3-yl)isonico-tinamide]		500 to 5000 nM
Cc1cccnc1Nc1nc(-c2cc(C#N)ccn2)ns1 [Compound 40, 2-(5-(3-methyl-pyridin-2-ylamino)-1,2,4-thiadiazol-3-yl)isonicotino-nitrile]	500 to 5000 nM	
CC(=O)N(C)c1cnc(Nc2nc(-c3ncccc3OC(C)C)ns2)c(C(F)(F)F)c1 [Compound 279, N-(6-(3-(3-isopropoxy-pyridin-2-yl)-1,2,4-thiadiazol-5-ylamino)-5-(trifluoro-methyl)pyridin-3-yl)-N-methylacetamide]		500 to 5000 nM
FC(F)(F)c1cncc(Nc2nc(-c3ccccn3)ns2)c1 [Cmpd 3, 3-(pyridin-2-yl)-N-(5-(trifluoromethyl)pyridin-3-yl)-1,2,4-thiadiazol-5-amine]	500 to 5000 nM	
CC(C)c1cnc(Nc2nc(-c3ccccn3)n(C)n2)cc1C(F)(F)F [Compound 143, 5-isopropyl-N-(1-methyl-5-(pyridin-2-yl)-1H-1,2,4-triazol-3-yl)-4-(trifluoromethyl) pyridin-2-amine]	500 to 5000 nM	
CN(C)c1cccnc1Nc1nc(-c2ccc(F)cn2)ns1 [Compound 121, N2-(3-(5-fluoro-pyridin-2-yl)-1,2,4-thiadiazol-5-yl)-N3,N3-dimethylpyridine-2,3-diamine]	< 200 nM	
CC(=O)N(C)c1cc(C(F)(F)F)cnc1Nc1nc(-c2ncc(OC(C)C)cn2)ns1 [Compound 316, N-(2-(3-(5-isopropoxy-pyrimidin-2-yl)-1,2,4-thiadiazol-5-ylamino)-5-(trifluoromethyl)pyridin-3-yl)-N-methylacetamide]		500 to 5000 nM
CC(=O)Nc1cccnc1Nc1nc(-c2ccc(OC(C)C)cn2)ns1 [Compound 161, N-(2-(3-(5-isopropoxy-pyridin-2-yl)-1,2,4-thiadiazol-5-ylamino)pyridin-3-yl)acetamide]	500 to 5000 nM	
CC(=O)N(C)c1cccnc1Nc1nc(-c2cc(C(C)C)ccn2)ns1 [Compound 216, N-(2-(3-(4-iso-propylpyridin-2-yl)-1,2,4-thiadiazol-5-ylamino)pyridin-3-yl)-N-methyl-acetamide]		200 to 500 nM
Cc1cc(C(F)(F)F)cnc1Nc1nc(-c2cc3c(cn2)N(C)CC3)ns1 [Compound 324, 3-(1-methyl-2,3-dihydro-1H-pyrrolo[2,3-c]pyridin-5-yl)-N-(3-methyl-5-(trifluoromethyl)pyridin-2-yl)-1,2,4-thiadiazol-5-amine]		< 200 nM
Cc1cccnc1Nc1nc(-c2ccc(OCC3CC3)cn2)ns1 [Compound 73, 3-(5-(cyclopropyl-methoxy)pyridin-2-yl)-N-(3-methylpyridin-2-yl)-1,2,4-thiadiazol-5-amine]	< 200 nM	
Cc1cc(C#N)cnc1Nc1nc(-c2ccc(OC(C)C)cn2)ns1 [Compound 231, 6-(3-(5-isoprop-oxypyridin-2-yl)-1,2,4-thiadiazol-5-ylamino)-5-methyl-nicotinonitrile]		200 to 500 nM
CC(=O)N(C)c1cccnc1Nc1nc(-c2cc3c(cn2)N(C)CC3)ns1 [Compound 202, N-methyl-N-(2-(3-(1-methyl-2,3-dihydro-1H-pyrrolo[2,3-c]pyridin-5-yl)-1,2,4-thiadiazol-5-ylamino)pyridin-3-yl)acetamide]		200 to 500 nM
CC(C)Oc1cccnc1-c1nsc(Nc2cc(N3CCCC3)ccn2)n1 [Compound 94, 3-(3-isopropoxy-pyridin-2-yl)-N-(4-(pyrrolidin-1-yl)pyridin-2-yl)-1,2,4-thiadiazol-5-amine]	< 200 nM	
COc1ccnc(-c2nsc(Nc3ccc(C(F)(F)F)cn3)n2)c1 [Compound 176, 3-(4-methoxy-pyridin-2-yl)-N-(5-(trifluoromethyl)pyridin-2-yl)-1,2,4-thiadiazol-5-amine]	< 200 nM	

Now from value to compound:

IC50 [1]	IC50 [2]	Structure (SMILES)
200 to 500 nM		Cc1cccnc1Nc1nc(-c2ccc(OC(C)C)cn2)n[nH]1 [Compound 69, N-(3-(5-isopropoxy-pyridin-2-yl)-1H-1,2,4-triazol-5-yl)-3-methylpyridin-2-amine]
200 to 500 nM		CC(C)Oc1ccc(-c2nnc(Nc3cc(C(F)(F)F)c(C(C)C)cn3)o2)nc1 [Compound 154, 5-(5-isoprop-oxypyridin-2-yl)-N-(5-isopropyl-4-(trifluoro-methyl)pyridin-2-yl)-1,3,4-oxadiazol-2-amine]
< 200 nM		COc1ccc(-c2nsc(Nc3ccc(OC4CCOCC4)cn3)n2)nc1 [Compound 43, 3-(5-methoxy-pyridin-2-yl)-N-(5-(tetrahydro-2H-pyran-4-yloxy)pyridin-2-yl)-1,2,4-thiadiazol-5-amine]
500 to 5000 nM		Cc1cccnc1Nc1nc(-c2ccc(C3CCN(C)CC3)cn2)ns1 [Compound 48, 3-(5-(1-methyl-piperidin-4-yl)pyridin-2-yl)-N-(3-methylpyridin-2-yl)-1,2,4-thiadiazol-5-amine]
	500 to 5000 nM	CC(C)Oc1ccc(-c2nsc(Nc3ncc(C(F)(F)F)cc3S(=O)(=O)N(C)C)n2)nc1 [Compound 286, 2-(3-(5-isopropoxy-pyridin-2-yl)-1,2,4-thiadiazol-5-ylamino)-N,N-dimethyl-5-(trifluoromethyl) pyridine-3-sulfonamide]
< 200 nM		Cc1cccnc1Nc1nc(-c2cc(C3CCN(C)CC3)ccn2)ns1 [Compound 44, 3-(4-(1-methyl-piperidin-4-yl)pyridin-2-yl)-N-(3-methylpyridin-2-yl)-1,2,4-thiadiazol-5-amine]
	500 to 5000 nM	CC(=O)N(C)c1cnc(Nc2nc(-c3cc(OC(C)C)ccn3)ns2)c(C)c1 [Compound 288, N-(6-(3-(4-isopropoxypyridin-2-yl)-1,2,4-thiadiazol-5-ylamino)-5-methylpyridin-3-yl)-N-methylacetamide]
< 200 nM		CN(C)c1cccnc1Nc1nc(-c2cc3c(cn2)N(C)CC3)ns1 [Compound 162, N3,N3-dimethyl-N2-(3-(1-methyl-2,3-dihydro-1H-pyrrolo[2,3-c]pyridin-5-yl)-1,2,4-thiadiazol-5-yl)pyridine-2,3-diamine]
500 to 5000 nM		CN1CCC(Oc2ccc(-c3nsc(Nc4cc(C(F)(F)F)ccn4)n3)nc2)CC1 [Compound 34, 3-(5-(1-methyl-piperidin-4-yloxy)pyridin-2-yl)-N-(4-(trifluoro-methyl)pyridin-2-yl)-1,2,4-thiadiazol-5-amine]
< 200 nM		CN(C)c1cccnc1Nc1nc(-c2cc(C(F)(F)F)c(OC3CC3)cn2)ns1 [Compound 111, N2-(3-(5-cyclo-propoxy-4-(trifluoromethyl)pyridin-2-yl)-1,2,4-thiadiazol-5-yl)-N3,N3-dimethyl-pyridine-2,3-diamine]
500 to 5000 nM		COc1cnc(-c2nsc(Nc3ncccc3C)n2)cn1 [Compound 125, 3-(5-methoxy-pyrazin-2-yl)-N-(3-methyl-pyridin-2-yl)-1,2,4-thiadiazol-5-amine]
500 to 5000 nM		Cc1cccnc1Nc1nc(-c2ccc(C(=O)NCC(F)(F)F)cn2)ns1 [Compound 60, 6-(5-(3-methyl-pyridin-2-ylamino)-1,2,4-thiadiazol-3-yl)-N-(2,2,2-trifluoroethyl) nicotinamide]
< 200 nM		Cc1cccnc1Nc1nc(-c2ccc(OC3CC3)cn2)n(C)n1 [Compound 103, N-(5-(5-cyclopropoxy-pyridin-2-yl)-1-methyl-1H-1,2,4-triazol-3-yl)-3-methyl-pyridin-2-amine]
	< 200 nM	COc1ccc(Nc2nnc(-c3cc(OC4CCCCC4)ccn3)s2)nc1 [Compound 233, 5-(4-(cyclo-hexyloxy)pyridin-2-y1)-N-(5-methoxypyridin-2-yl)-1,3,4-thiadiazol-2-amine]
	< 200 nM	CC(=O)N(C)c1cc(C(F)(F)F)cnc1Nc1nc(-c2ccccn2)ns1 [Compound 325, N-methyl-N-(2-(3-(pyridin-2-yl)-1,2,4-thiadiazol-5-ylamino)-5-(trifluoromethyl)pyridin-3-yl)acetamide]
500 to 5000 nM		CC(C)c1cccnc1Nc1nc(-c2ccc(F)cn2)ns1 [Compound 128, 3-(5-fluoro-pyridin-2-yl)-N-(3-isopropyl-pyridin-2-yl)-1,2,4-thiadiazol-5-amine]
